These results are taken from PMC4475657 (Iranian Journal of Basic Medical Sciences, 2015).

For the test, the target named is human tau protein 1N/4R isoform (htau34) (Homo sapiens, UniProt P10636). Nature of the test: ThT fluorescence aggregation assay of purified tau. Type of test: biochemical.

pIC50: −log10 of the molar value.

Chain of human tau protein 1N/4R isoform (htau34) (P10636 1-412 isoform P10636-7): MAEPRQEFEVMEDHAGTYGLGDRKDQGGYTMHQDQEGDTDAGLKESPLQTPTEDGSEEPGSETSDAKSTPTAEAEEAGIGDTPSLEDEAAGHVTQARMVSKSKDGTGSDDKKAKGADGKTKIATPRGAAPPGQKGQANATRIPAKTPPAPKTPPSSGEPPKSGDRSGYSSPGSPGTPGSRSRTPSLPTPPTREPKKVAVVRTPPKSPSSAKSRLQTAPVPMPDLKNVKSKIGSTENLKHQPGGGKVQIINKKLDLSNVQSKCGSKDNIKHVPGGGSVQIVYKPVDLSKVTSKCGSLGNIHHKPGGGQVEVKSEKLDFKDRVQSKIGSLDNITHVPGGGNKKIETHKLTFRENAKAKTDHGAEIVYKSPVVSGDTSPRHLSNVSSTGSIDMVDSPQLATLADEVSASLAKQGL

As a reminder, the pIC50 is the IC50 on a negative log10 scale, so that one unit is a factor of ten. High values mean a small IC50, low ones a large IC50. Regarding `CC(/C=C/C=C(\C)C(=O)O[C@@H]1O[C@H](CO[C@@H]2O[C@H](CO)[C@@H](O)[C@H](O)[C@H]2O)[C@@H](O)[C@H](O)[C@H]1O)=C\C=C\C=C(C)\C=C\C=C(/C)C(=O)O[C@@H]1O[C@H](CO[C@@H]2O[C@H](CO)[C@@H](O)[C@H](O)[C@H]2O)[C@@H](O)[C@H](O)[C@H]1O` [crocin], the pIC50 was 3.99.
